Laboratory results: BindingDB's records for doi:10.1021/jm970470c (Warner-Lambert, 1997)

Experiment: Concentration required to inhibit 50% of the cultured colonies of H-Ras-Fcells.

| SMILES | IC50 [nM] |
| --- | --- |
| O=C(CN(Cc1ccc(OCc2ccccc2)cc1)C(=O)[C@H](Cc1cnc[nH]1)NC(=O)OCc1ccccc1)NCC1(c2ccccc2)CCC1 [[(S)-1-((4-Benzyloxy-benzyl)-{[(1-phenyl-cyclobutylmethyl)-carbamoyl]-methyl}-carbamoyl)-2-(3H-imidazol-4-yl)-ethyl]-carbamic acid benzyl ester] | 88 |
| O=C(CN(Cc1ccc(OCc2ccccc2)cc1)C(=O)[C@H](Cc1cnc[nH]1)NC(=O)OCc1ccccc1)NCC1(c2ccccc2)CCCC1 [[(S)-1-((4-Benzyloxy-benzyl)-{[(1-phenyl-cyclopentylmethyl)-carbamoyl]-methyl}-carbamoyl)-2-(3H-imidazol-4-yl)-ethyl]-carbamic acid benzyl ester] | 330 |
| O=C(CN(Cc1ccc(OCc2ccccc2)cc1)C(=O)[C@H](Cc1cnc[nH]1)NC(=O)OCc1ccccc1)NCC1(c2ccccc2)CC1 [[(S)-1-((4-Benzyloxy-benzyl)-{[(1-phenyl-cyclopropylmethyl)-carbamoyl]-methyl}-carbamoyl)-2-(3H-imidazol-4-yl)-ethyl]-carbamic acid benzyl ester] | 180 |
| O=C(CN(Cc1ccc(OCc2ccccc2)cc1)C(=O)[C@H](Cc1cnc[nH]1)NC(=O)OCc1ccccc1)NCCc1ccccc1 [[(S)-1-[(4-Benzyloxy-benzyl)-(phenethylcarbamoyl-methyl)-carbamoyl]-2-(1H-imidazol-4-yl)-ethyl]-carbamic acid benzyl ester] | 4300 |
| O=C(CN(Cc1ccc(OCc2ccccc2)cc1)C(=O)[C@H](Cc1cnc[nH]1)NC(=O)OCc1ccccc1)NCCOCc1ccccc1 [[(S)-1-{(4-Benzyloxy-benzyl)-[(2-benzyloxy-ethylcarbamoyl)-methyl]-carbamoyl}-2-(1H-imidazol-4-yl)-ethyl]-carbamic acid benzyl ester] | 14300 |
| N#CC(CNC(=O)CN(Cc1ccc(OCc2ccccc2)cc1)C(=O)[C@H](Cc1cnc[nH]1)NC(=O)OCc1ccccc1)c1ccccc1 (stereo partly drawn) [[(S)-1-{(4-Benzyloxy-benzyl)-[(2-cyano-2-phenyl-ethylcarbamoyl)-methyl]-carbamoyl}-2-(3H-imidazol-4-yl)-ethyl]-carbamic acid benzyl ester] | 190 |
| CCC(CC)(CNC(=O)CN(Cc1ccc(OCc2ccccc2)cc1)C(=O)[C@H](Cc1cnc[nH]1)NC(=O)OCc1ccccc1)c1ccccc1 [[(S)-1-{(4-Benzyloxy-benzyl)-[(2-ethyl-2-phenyl-butylcarbamoyl)-methyl]-carbamoyl}-2-(3H-imidazol-4-yl)-ethyl]-carbamic acid benzyl ester] | > 1000 |
| CC(C)(CNC(=O)CN(Cc1ccc(OCc2ccccc2)cc1)C(=O)[C@H](Cc1cnc[nH]1)NC(=O)OCc1ccccc1)c1ccccc1 [[(S)-1-{(4-Benzyloxy-benzyl)-[(2-methyl-2-phenyl-propylcarbamoyl)-methyl]-carbamoyl}-2-(3H-imidazol-4-yl)-ethyl]-carbamic acid benzyl ester] | 180 |
| CCC(CNC(=O)CN(Cc1ccc(OCc2ccccc2)cc1)C(=O)[C@H](Cc1cnc[nH]1)NC(=O)OCc1ccccc1)c1ccccc1 (stereo partly drawn) [[(S)-1-{(4-Benzyloxy-benzyl)-[(2-phenyl-butylcarbamoyl)-methyl]-carbamoyl}-2-(3H-imidazol-4-yl)-ethyl]-carbamic acid benzyl ester] | 400 |
| CCCC(CNC(=O)CN(Cc1ccc(OCc2ccccc2)cc1)C(=O)[C@H](Cc1cnc[nH]1)NC(=O)OCc1ccccc1)c1ccccc1 (stereo partly drawn) [[(S)-1-{(4-Benzyloxy-benzyl)-[(2-phenyl-pentylcarbamoyl)-methyl]-carbamoyl}-2-(3H-imidazol-4-yl)-ethyl]-carbamic acid benzyl ester] | > 1000 |
| CC(CNC(=O)CN(Cc1ccc(OCc2ccccc2)cc1)C(=O)[C@H](Cc1cnc[nH]1)NC(=O)OCc1ccccc1)c1ccccc1 (stereo partly drawn) [[(S)-1-{(4-Benzyloxy-benzyl)-[(2-phenyl-propylcarbamoyl)-methyl]-carbamoyl}-2-(3H-imidazol-4-yl)-ethyl]-carbamic acid benzyl ester] | 310 |
| C[C@H](Cc1ccccc1)NC(=O)CN(Cc1ccc(OCc2ccccc2)cc1)C(=O)[C@H](Cc1cnc[nH]1)NC(=O)OCc1ccccc1 [[(S)-1-{(4-Benzyloxy-benzyl)-[((R)-1-methyl-2-phenyl-ethylcarbamoyl)-methyl]-carbamoyl}-2-(3H-imidazol-4-yl)-ethyl]-carbamic acid benzyl ester] | 710 |
| C[C@@H](CNC(=O)CN(Cc1ccc(OCc2ccccc2)cc1)C(=O)[C@H](Cc1cnc[nH]1)NC(=O)OCc1ccccc1)c1ccccc1 [[(S)-1-{(4-Benzyloxy-benzyl)-[((R)-2-phenyl-propylcarbamoyl)-methyl]-carbamoyl}-2-(3H-imidazol-4-yl)-ethyl]-carbamic acid benzyl ester] | 570 |
| C[C@@H](Cc1ccccc1)NC(=O)CN(Cc1ccc(OCc2ccccc2)cc1)C(=O)[C@H](Cc1cnc[nH]1)NC(=O)OCc1ccccc1 [[(S)-1-{(4-Benzyloxy-benzyl)-[((S)-1-methyl-2-phenyl-ethylcarbamoyl)-methyl]-carbamoyl}-2-(3H-imidazol-4-yl)-ethyl]-carbamic acid benzyl ester] | 6300 |
| C[C@H](CNC(=O)CN(Cc1ccc(OCc2ccccc2)cc1)C(=O)[C@H](Cc1cnc[nH]1)NC(=O)OCc1ccccc1)c1ccccc1 [[(S)-1-{(4-Benzyloxy-benzyl)-[((S)-2-phenyl-propylcarbamoyl)-methyl]-carbamoyl}-2-(3H-imidazol-4-yl)-ethyl]-carbamic acid benzyl ester] | 300 |
